From patent US7405240B2, “Substituted cyclopentanes or cyclopentanones as therapeutic agents” (Allergan, Inc., priority 2006, dated 2008)

Experiments:
normotensive dogs = assay: Intraocular pressure and ocular surface hyperemia in normotensive dogs; assay type: in vivo, dog; set-up: maximum OSH score: scale not given here; conditions: once daily for 5 days
Description: (§1) (Z)-7-[(1R,2S,3R,5R)-5-Chloro-2-(3,5-dichloro-phenoxymethyl)-3-hydroxy-cyclopentyl]-hept-5-enoic acid (15b) was tested at multiple concentrations in normotensive dogs, dosing once daily for 5 days. At 0.05%, the maximum IOP decrease from baseline was 4.3 mmHg (30%) at 6 h; the maximum OSH score was 0.6 at 6 h. […] This compound was also tested in laser-induced hypertensive monkeys, using one single day dose. At 0.1%, the maximum IOP decrease from baseline was 6 mmHg (19%) at 6 h.
(§2) (Z)-7-[(1R,2S,3R,5R)-5-Chloro-2-(3,5-dichloro-phenoxymethyl)-3-hydroxy-cyclopentyl]-hept-5-enoic acid isopropyl ester (42b) was tested in normotensive dogs at 0.05%, dosing once daily for 5 days. The maximum intraocular pressure (IOP) decrease from baseline was 3 mmHg (19%) at 6 h; the maximum ocular surface hyperemia (OSH) score was 0.6 at 74 h. This compound was also tested in laser-induced hypertensive monkeys, using one single day dose. At 0.01%, the maximum IOP decrease from baseline was 6 mmHg (16%) at 6 h.

[1] = tested on: laser-induced hypertensive monkeys; assay: Intraocular pressure in laser-induced hypertensive monkeys; assay type: in vivo, monkey; conditions: one single day dose
Description: as §1, §2

hEP2 [2] = molecular target: T1, hEP2 (Homo sapiens, UniProt P43116); assay: cAMP assay, hEP2; assay type: cell-based
T1 sequence (P43116 whole entry): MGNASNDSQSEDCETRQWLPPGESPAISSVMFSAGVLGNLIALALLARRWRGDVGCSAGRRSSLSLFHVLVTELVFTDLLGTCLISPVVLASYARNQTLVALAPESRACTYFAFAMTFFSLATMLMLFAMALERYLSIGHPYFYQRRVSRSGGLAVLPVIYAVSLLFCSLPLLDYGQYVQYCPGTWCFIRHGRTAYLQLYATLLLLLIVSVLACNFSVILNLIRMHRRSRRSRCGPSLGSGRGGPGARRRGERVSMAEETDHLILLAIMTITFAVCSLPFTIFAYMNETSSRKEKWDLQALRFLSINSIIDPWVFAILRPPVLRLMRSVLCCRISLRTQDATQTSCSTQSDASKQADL

hEP2 [3] = molecular target: T1, hEP2; assay: Competition binding, [3H]PGE2, human EP2 receptors; set-up: expressed in transfected cells; host or cells: HEK 293; conditions: [3H]PGE2, HEK 293 cells stably expressing human EP2; read-out: hEP2 Ki
Outline: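 HEK 293 membranes or cells stably expressing human EP2 were incubated with 10 nM [3H]PGE2 and test compound in HBSS/20 mM Hepes pH 7.3, 60 min at 23° C, then filtered. Non-specific binding defined with 10 μM PGE2; IC50 from single-site fit converted to Ki using KD 40 nM.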

hEP4 [4] = molecular target: T2, hEP4 (Homo sapiens, UniProt P35408); assay: Radioligand binding, EP4 receptor; set-up: expressed in transfected cells; host or cells: HEK-293; conditions: [3H]PGE2, HEK-293 cells expressing EP4
T2 sequence (P35408 whole entry): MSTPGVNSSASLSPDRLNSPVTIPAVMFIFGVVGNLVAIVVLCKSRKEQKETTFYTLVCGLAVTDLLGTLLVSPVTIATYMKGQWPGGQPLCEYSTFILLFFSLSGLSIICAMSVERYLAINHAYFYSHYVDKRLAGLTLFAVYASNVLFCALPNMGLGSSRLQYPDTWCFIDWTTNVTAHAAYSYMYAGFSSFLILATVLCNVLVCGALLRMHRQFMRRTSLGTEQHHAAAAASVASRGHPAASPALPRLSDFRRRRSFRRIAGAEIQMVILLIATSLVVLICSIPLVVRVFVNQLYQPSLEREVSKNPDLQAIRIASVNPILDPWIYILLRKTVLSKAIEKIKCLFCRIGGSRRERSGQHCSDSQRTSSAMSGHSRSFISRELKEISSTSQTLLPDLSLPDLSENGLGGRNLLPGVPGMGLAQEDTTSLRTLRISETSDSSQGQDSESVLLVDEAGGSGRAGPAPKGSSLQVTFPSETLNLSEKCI
Outline: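 HEK-293 membranes stably expressing human EP4, in TME buffer pH 7.4; competition vs 5 nM [3H]-PGE2, 60 min at 25 °C, stopped by GF/B filtration. Non-specific binding defined with 10^−5 M unlabeled PGE2; duplicates, at least three experiments.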

hEP2 [5] = molecular target: T1, hEP2; assay: FLIPR calcium signal, hEP2; assay type: cell-based; set-up: expressed in transfected cells; host or cells: HEK-293(EBNA); conditions: HEK-293(EBNA) cells expressing hEP2/Gqs5
Outline: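 HEK-293(EBNA) cells stably expressing a single human prostaglandin receptor (hDP/Gqs5 chimera for DP), Fluo-4 AM loaded, in HBSS-HEPES pH 7.4 at 37 °C. Peak calcium fluorescence scaled to buffer and receptor standard agonist; 10^−5 M single-point or 10^−5–10^−11 M curves, duplicates, n≥3.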

hEP4 [6] = molecular target: T2, hEP4; assay: FLIPR calcium signal, hEP4; assay type: cell-based; set-up: expressed in transfected cells; host or cells: HEK-293(EBNA); conditions: HEK-293(EBNA) cells expressing hEP4/Gqs5
Description: Methods for FLIPR™ Studies
HEK-293(EBNA) cells, stably expressing one type or subtype of recombinant human prostaglandin receptors (prostaglandin receptors expressed: hDP/Gqs5; hEP1; hEP2/Gqs5; hEP3A/Gqi5; hEP4/Gqs5; hFP; hIP; hTP), were cultured in 100 mm culture dishes in high-glucose DMEM medium containing 10% fetal bovine serum, 2 mM 1-glutamine, 250 μg/ml geneticin (G418) and 200 μg/ml hygromycin B as selection markers, and 100 units/ml penicillin G, 100 μg/ml streptomycin and 0.25 μg/ml amphotericin B.
Cells were seeded at a density of 5×10^4 cells per well in Biocoat® Poly-D-lysine-coated black-wall, clear-bottom 96-well plates (Becton-Dickinson) and allowed to attach overnight in an incubator at 37° C. Cells were then washed two times with HBSS-HEPES buffer (Hanks Balanced Salt Solution without bicarbonate and phenol red, 20 mM HEPES, pH 7.4) using a Denley Cellwash plate washer (Labsystems). After 45 minutes of dye-loading in the dark, using the calcium-sensitive dye Fluo-4 AM at a final concentration of 2 μM, plates were washed four times with HBSS-HEPES buffer to remove excess dye leaving 100 μl in each well. Plates were re-equilibrated to 37° C. for a few minutes.
Cells were excited with an Argon laser at 488 nm, and emission was measured through a 510-570 nm bandwidth emission filter (FLIPR™, Molecular Devices, Sunnyvale, Calif.). Drug solution was added in a 50 μl volume to each well to give the desired final concentration. The peak increase in fluorescence intensity was recorded for each well. On each plate, four wells each served as negative (HBSS-HEPES buffer) and positive controls (standard agonists: BW245C (hDP); PGE2 (hEP1; hEP2/Gqs5; hEP3A/Gqi5; hEP4/Gqs5); PGF2α (hFP); carbacyclin (hIP); U-46619 (hTP), depending on receptor). The peak fluorescence change in each drug-containing well was then expressed relative to the controls.
Compounds were tested in a high-throughput (HTS) or concentration-response (CoRe) format. In the HTS format, forty-four compounds per plate were examined in duplicates at a concentration of 10^−5 M. To generate concentration-response curves, four compounds per plate were tested in duplicates in a concentration range between 10^−5 and 10^−11 M. The duplicate values were averaged. In either, HTS or CoRe format each compound was tested on at least 3 separate plates using cells from different passages to give an n≧3.

[7] = Canis lupus familiaris, topical, 120 h, 0.05%, read-out: maximum IOP decrease from baseline
[8] = Canis lupus familiaris, topical, 120 h, 0.1%, read-out: maximum IOP decrease from baseline
[9] = Primates, topical, 0.1%, read-out: maximum IOP decrease from baseline

maximum OSH score (normotensive dogs; 0.1%) | time of maximum OSH score (normotensive dogs; 0.1%) | EC50 (hEP2 [2]) | Ki (hEP2 [3]) | Ki (hEP4 [4]) | EC50 (hEP2 [5]) | Compound | maximum IOP decrease from baseline (normotensive dogs; 0.1%) | time of maximum IOP decrease (normotensive dogs; 0.1%) | change in vivo at 0.1 % (normotensive dogs; [8]) | maximum IOP decrease from baseline ([1]; 0.1%) | time of maximum IOP decrease ([1]; 0.1%) | change in vivo at 0.1 % [1, 9] | other results
– | – | – | – | – | – | CC(C)OC(=O)CCC/C=C\C[C@@H]1[C@@H](COc2cc(Cl)cc(Cl)c2)[C@H](O)C[C@H]1Cl [Example 42b, (Z)-7-[(1R,2S,3R,5R)-5-Chloro-2-(3,5-dichloro-phenoxymethyl)-3-hydroxy-cyclopentyl]-hept-5-enoic acid isopropyl ester] | – | – | – | – | – | – | maximum IOP decrease from baseline (normotensive dogs; 0.05%): 3 mmHg; maximum OSH score (normotensive dogs; 0.05%): 0.6; time of maximum IOP decrease (normotensive dogs; 0.05%): 6 h; time of maximum OSH score (normotensive dogs; 0.05%): 74 h; change in vivo at 0.05 % (normotensive dogs; [7]): 19%; maximum IOP decrease from baseline ([1]; 0.01%): 6 mmHg; time of maximum IOP decrease ([1]; 0.01%): 6 h; change in vivo at 0.01 % ([1]; Primates, topical, 0.01%, read-out: maximum IOP decrease from baseline): 16%
0.6 | 30 h | – | – | – | – | CC(C)OC(=O)CCC/C=C\C[C@@H]1[C@@H](COc2ccc(CO)cc2)[C@H](O)C[C@H]1Cl [Example 42bb, (Z)-7-[(1R,2S,3R,5R)-5-Chloro-3-hydroxy-2-(4-hydroxymethyl-phenoxymethyl)-cyclopentyl]-hept-5-enoic acid isopropyl ester] | 4.6 mmHg | 100 h | 33% | 5.5 mmHg | 6 h | 16% | –
0.6 | 98 h | 5 nM | 993 nM | > 10000 nM | 44 nM | O=C(O)CCC/C=C\C[C@@H]1[C@@H](COc2ccc(CO)cc2)[C@H](O)C[C@H]1Cl [Example 43, (Z)-7-[(1R,2S,3R,5R)-5-Chloro-3-hydroxy-2-(4-hydroxymethyl-phenoxymethyl)-cyclopentyl]-hept-5-enoic acid] | 2.8 mmHg | 98 h | 20% | 2 mmHg | 6 h | 6% | –
– | – | – | – | – | – | CC(C)OC(=O)CCC/C=C\C[C@@H]1[C@@H](COc2cc(C(F)(F)F)cc(C(F)(F)F)c2)[C@H](O)C[C@H]1Cl [Example 42c, (Z)-7-[(1R,2S,3R,5R)-2-(3,5-Bis-trifluoromethyl-phenoxymethyl)-5-chloro-3-hydroxy-cyclopentyl]-hept-5-enoic acid isopropyl ester] | – | – | – | – | – | – | maximum IOP decrease from baseline (normotensive dogs; 0.03%): 2.3 mmHg; maximum OSH score (normotensive dogs; 0.03%): 0.7; time of maximum IOP decrease (normotensive dogs; 0.03%): 100 h; time of maximum OSH score (normotensive dogs; 0.03%): 78 h; change in vivo at 0.03 % (normotensive dogs; Canis lupus familiaris, topical, 120 h, 0.03%, read-out: maximum IOP decrease from baseline): 14%; maximum IOP decrease from baseline ([1]; 0.03%): 4 mmHg; time of maximum IOP decrease ([1]; 0.03%): 6 h; change in vivo at 0.03 % ([1]; Primates, topical, 0.03%, read-out: maximum IOP decrease from baseline): 11%
0.5 | 6 h | 2.4 nM | 44 nM | 1420 nM | 66 nM | O=C(O)CCC/C=C\C[C@@H]1[C@@H](COc2cccc(C(F)(F)F)c2)[C@H](O)C[C@H]1Cl [Example 24, (Z)-7-[(1R,2S,3R,5R)-5-Chloro-3-hydroxy-2-(3-trifluoromethyl-phenoxymethyl)-cyclopentyl]-hept-5-enoic acid] | 2.5 mmHg | 78 h | 16% | 10.8 mmHg | 6 h | 28% | EC50 (hEP4 [6]): 9870 nM
0.9 | 74 h | – | – | – | – | Cc1cc(C)cc(OC[C@@H]2[C@@H](C/C=C\CCCC(=O)OC(C)C)[C@H](Cl)C[C@H]2O)c1 [Example 42u, (Z)-7-[(1R,2S,3R,5R)-5-Chloro-2-(3,5-dimethyl-phenoxymethyl)-3-hydroxy-cyclopentyl]-hept-5-enoic acid isopropyl ester] | 4.3 mmHg | 30 h | 30% | 8 mmHg | 6 h | 23% | –
0.6 | 50 h | – | – | – | – | CC(C)OC(=O)CCC/C=C\C[C@@H]1[C@@H](COc2cccc(C(F)(F)F)c2)[C@H](O)C[C@H]1Cl [Example 42i, (Z)-7-[(1R,2S,3R,5R)-5-Chloro-3-hydroxy-2-(3-trifluoromethyl-phenoxymethyl)-cyclopentyl]-hept-5-enoic acid isopropyl ester] | 2.7 mmHg | 2 h | 19% | 4.7 mmHg | 6 h | 14% | –
1.3 | 6 h | – | – | – | – | O=C(O)CCC/C=C\C[C@@H]1[C@@H](COc2cc(Cl)cc(Cl)c2)[C@H](O)C[C@H]1Cl [Example 15b, (Z)-7-[(1R,2S,3R,5R)-5-Chloro-2-(3,5-dichloro-phenoxymethyl)-3-hydroxy-cyclopentyl]-hept-5-enoic acid] | 4.8 mmHg | 102 h | 34% | 6 mmHg | 6 h | 19% | maximum IOP decrease from baseline (normotensive dogs; 0.05%): 4.3 mmHg; maximum OSH score (normotensive dogs; 0.05%): 0.6; time of maximum IOP decrease (normotensive dogs; 0.05%): 6 h; time of maximum OSH score (normotensive dogs; 0.05%): 6 h; change in vivo at 0.05 % (normotensive dogs; [7]): 30%
– | – | 139 nM | 568 nM | 2380 nM | 1580 nM | O=C(O)CCC/C=C\C[C@@H]1[C@@H](COc2cccc(OC(=O)c3ccccc3)c2)[C@H](O)C[C@H]1Cl [Example 29, 3-[(1S,2R,3R,5R)-2-((Z)-6-carboxy-hex-2-enyl)-3-chloro-5-hydroxy-cyclopentylmethoxy]-phenyl benzoate] | – | – | – | – | – | – | EC50 (hEP4 [6]): 7680 nM
